In ChEMBL document CHEMBL1137192, “Synthesis and neurotrophic activity of nonimmunosuppressant cyclosporin A derivatives” (Bioorg Med Chem Lett, 2004):

Columns and labels:
[1] = system: T-cell; test: Inhibition of T-cell proliferation; format: functional; settings: read-out: ED50 (the source's name)
[2] = target: Peptidyl-prolyl cis-trans isomerase A (Homo sapiens, UniProt P62937); test: Inhibition of cyclophilin A rotamase
Sequence of Peptidyl-prolyl cis-trans isomerase A (P62937 whole entry): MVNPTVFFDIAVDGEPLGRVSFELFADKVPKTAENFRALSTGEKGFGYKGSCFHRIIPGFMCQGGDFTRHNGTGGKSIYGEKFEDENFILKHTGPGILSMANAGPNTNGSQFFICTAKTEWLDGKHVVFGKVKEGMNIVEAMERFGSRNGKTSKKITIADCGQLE

Row | Ki [2] [µM] | Structure (SMILES) | EC50 [1] [µM]
1 | – | CCCC[C@@H](C)[C@@H](O)[C@H]1C(=O)N[C@@H](CC)C(=O)N(C)CC(=O)N(C)[C@@H](CC(C)C)C(=O)N[C@@H](C(C)C)C(=O)N(C)[C@@H](CC(C)C)C(=O)N[C@@H](C)C(=O)N[C@H](C)C(=O)N(C)[C@@H](CC(C)C)C(=O)N(C)[C@@H](CC(C)C)C(=O)N(C)[C@@H](C(C)C)C(=O)N1C | 0.13
2 | – | C/C=C/C[C@@H](C)[C@@H](O)[C@H]1C(=O)N[C@@H](CC)C(=O)N(C)CC(=O)N(C)[C@@H](CC)C(=O)N[C@@H](C(C)C)C(=O)N(C)[C@@H](CC(C)C)C(=O)N[C@@H](C)C(=O)N[C@H](C)C(=O)N(C)[C@@H](CC(C)C)C(=O)N(C)[C@@H](CC(C)C)C(=O)N(C)[C@@H](C(C)C)C(=O)N1C | > 10
3 | – | C=C1NC(=O)[C@H](C)NC(=O)[C@H](CC(C)C)N(C)C(=O)[C@H](C(C)C)NC(=O)[C@H](CC(C)C)N(C)C(=O)CN(C)C(=O)[C@H](CC)NC(=O)[C@H]([C@H](O)[C@H](C)C/C=C/C)N(C)C(=O)[C@H](C(C)C)N(C)C(=O)[C@H](CC(C)C)N(C)C(=O)[C@H](CC(C)C)N(C)C1=O | > 10
4 | 0.018 | C/C=C/C[C@@H](C)C(O)[C@H]1C(=O)N[C@@H](CC)C(=O)N(C)CC(=O)N(C)[C@H](CC(C)C)C(=O)N[C@](C)(C(C)O)C(=O)N(C)[C@@H](CC(C)C)C(=O)N[C@@H](C)C(=O)N[C@H](C)C(=O)N(C)[C@H](CC(C)C)C(=O)N(C)[C@@H](CC(C)C)C(=O)N(C)[C@@H](C(C)C)C(=O)N1C (stereo not given in full) | > 10
